In patent publication US10927128B2, “Oxadiazaspiro compounds for the treatment of drug abuse and addiction” (ESTEVE PHARMACEUTICALS, S.A., priority 2015, dated 2021) one finds Ki data, which are given here for 2 compounds.

This assay has as its target human σ1 receptor (Homo sapiens (Human), UniProt Q99720). The assay can be described thus: Human σ1 receptor radioligand assay. The assay is classed as binding. As for the experimental part:
Human σ1 Receptor Radioligand Assay
To investigate binding properties of test compounds to human σ1 receptor, transfected HEK-293 membranes and [^3H](+)-pentazocine (Perkin Elmer, NET-1056), as the radioligand, were used. The assay was carried out with 7 μg of membrane suspension, 5 nM of [^3H](+)-pentazocine in either absence or presence of either buffer or 10 μM Haloperidol for total and non-specific binding, respectively. Binding buffer contained Tris-HCl 50 mM at pH 8. Plates were incubated at 37° C. for 120 minutes. After the incubation period, the reaction mix was then transferred to Multiscreen HTS, FC plates (Millipore), filtered and plates were washed 3 times with ice-cold 10 mM Tris-HCL (pH7.4). Filters were dried and counted at approximately 40% efficiency in a MicroBeta scintillation counter (Perkin-Elmer) using EcoScint liquid scintillation cocktail

pKi: −log10 of the molar value. Where two headings read alike, the source gives them in different places.

One may read the pKi as −log10 of the Ki, conventionally taken in molar units.

Sequence of human σ1 receptor (Q99720 whole entry): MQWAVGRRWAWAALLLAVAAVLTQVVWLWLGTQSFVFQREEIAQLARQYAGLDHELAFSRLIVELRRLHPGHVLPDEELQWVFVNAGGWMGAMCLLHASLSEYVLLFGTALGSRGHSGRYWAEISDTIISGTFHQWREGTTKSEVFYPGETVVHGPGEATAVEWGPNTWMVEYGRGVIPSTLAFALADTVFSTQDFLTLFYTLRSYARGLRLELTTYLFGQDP

Regarding `CCN1CC(C)OC2(CCN(CCc3ccccc3)CC2)C1` (centres unmarked) [Example 112, 4-Ethyl-2-methyl-9-phenethyl-1-oxa-4,9-diazaspiro[5.5]undecane], the negative-log Ki (pKi) ([3H](+)-pentazocine radioligand, transfected HEK-293 membranes, read-out: Ki-σ1) is over 7.00.
With `CCN1CC2(CCN(CCC(C)(C)C)CC2)O[C@@H](C)C1=O` [Example 52, (S)-9-(3,3-dimethylbutyl)-4-ethyl-2-methyl-1-oxa-4,9-diazaspiro[5.5]undecan-3-one], the pKi is 6.30 to 7.00.
